The test system of data set [1] is BALB/c mice. In words: In vivo diarrhea test (CPT-11). Set-up: species or system mouse; key to Diarrhea Score: 0: Normal stool; 1: Slight perianal staining of the coat; 2: Moderate perianal staining of the coat; 3: Watery mucosal-infused stool with severe perianal staining of the coat; Death.
Data set [2] concerns patients. Particulars: patients taking irinotecan; cited from earlier work.
Data set [3] has as its target T1, HsGUS (human GUS) (Homo sapiens, UniProt P08236).
T1 construct: HsGUS was prepared as described[37]; made in house
T1 sequence (P08236 23-651): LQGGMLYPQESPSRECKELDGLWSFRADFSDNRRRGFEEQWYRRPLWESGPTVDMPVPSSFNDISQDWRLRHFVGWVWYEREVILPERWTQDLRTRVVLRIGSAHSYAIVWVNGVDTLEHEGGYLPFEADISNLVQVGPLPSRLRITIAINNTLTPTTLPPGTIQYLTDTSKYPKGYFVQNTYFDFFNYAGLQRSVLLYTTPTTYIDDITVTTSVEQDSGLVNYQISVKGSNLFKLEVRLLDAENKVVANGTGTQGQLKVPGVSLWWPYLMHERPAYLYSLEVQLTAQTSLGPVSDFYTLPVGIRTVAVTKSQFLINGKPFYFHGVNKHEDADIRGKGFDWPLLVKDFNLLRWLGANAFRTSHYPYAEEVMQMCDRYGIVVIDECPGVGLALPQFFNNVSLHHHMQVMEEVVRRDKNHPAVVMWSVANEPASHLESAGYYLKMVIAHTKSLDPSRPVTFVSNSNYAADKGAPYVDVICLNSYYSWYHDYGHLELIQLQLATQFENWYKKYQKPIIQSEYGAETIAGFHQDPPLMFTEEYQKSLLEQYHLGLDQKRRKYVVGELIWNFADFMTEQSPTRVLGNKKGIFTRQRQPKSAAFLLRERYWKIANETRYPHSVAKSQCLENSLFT
Put plainly: GUS inhibition assay, hydrolysis of 4-methylumbelliferyl-β-glucuronide, HsGUS. It is filed as biochemical. Particulars: HsGUS; at 1 mM; read-out: percentage of inhibition.

Data set [4] has as its target EcGUS (Escherichia coli GUS) (Escherichia coli, UniProt P05804). In words: biochemical.
Data set [5] concerns BALB/c mice. In words: Colon histology (hematoxylin and eosin) after oral gavage. Particulars: female BALB/c mice; oral gavage for 5 days; 3 at 37.5 mg per kg body weight, ASN03273363 at 65 mg. It is filed as in vivo, mouse.
Setting [6] is: Day 6, individual mice (Box 1-8).
Where [7] appears, read: Day 7, individual mice (Box 1-8).
Where [8] appears, read: Day 8, individual mice (Box 1-8).
[9] abbreviates: Day 9, individual mice (Box 1-8).
[10] abbreviates: Day 10, individual mice (Box 1-8).
Where [11] appears, read: Day 11, individual mice (Box 1-8).
Setting [12] is: Day 12, individual mice (Box 1-8).

We go through six compounds from PMC7933434, “Entropy-driven binding of gut bacterial β-glucuronidase inhibitors ameliorates irinotecan-induced toxicity” (Communications Biology, 2021).

Molecules are shown by their SMILES. Values joined by “and” are separate entries in the source; they are usually repeats but may differ in a detail not shown here. Equal entries are not always repeated. “Also recorded” adds a separate entry of the source.

Sequence of EcGUS (Escherichia coli GUS) (P05804 whole entry): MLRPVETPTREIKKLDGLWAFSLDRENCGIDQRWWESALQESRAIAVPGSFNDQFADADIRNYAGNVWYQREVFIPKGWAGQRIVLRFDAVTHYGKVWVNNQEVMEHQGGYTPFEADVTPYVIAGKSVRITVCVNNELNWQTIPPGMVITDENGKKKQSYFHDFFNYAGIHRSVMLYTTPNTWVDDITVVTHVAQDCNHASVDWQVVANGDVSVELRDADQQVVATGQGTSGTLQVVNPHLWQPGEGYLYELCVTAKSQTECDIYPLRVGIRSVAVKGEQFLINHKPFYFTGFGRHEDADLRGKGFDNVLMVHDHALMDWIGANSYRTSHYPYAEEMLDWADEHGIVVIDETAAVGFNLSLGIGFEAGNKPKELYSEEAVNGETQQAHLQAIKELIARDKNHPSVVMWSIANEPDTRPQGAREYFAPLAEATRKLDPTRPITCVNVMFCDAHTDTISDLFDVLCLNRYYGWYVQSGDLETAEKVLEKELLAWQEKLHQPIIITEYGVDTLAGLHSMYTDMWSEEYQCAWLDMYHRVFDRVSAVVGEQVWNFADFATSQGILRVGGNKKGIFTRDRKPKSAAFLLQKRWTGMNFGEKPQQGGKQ

As to `CCc1c2c(nc3ccc(OC(=O)N4CCC(N5CCCCC5)CC4)cc13)-c1cc3c(c(=O)n1C2)COC(=O)[C@]3(O)CC` [CPT-11, Irinotecan], in data set [1] (BALB/c mice, CPT-11 only, 30 mg per kg daily, 10 days), the diarrhea result is “developed diarrhea on day 7, until they reached a peak on day 11; also recorded: severe diarrhea from days 7–11”. For the same compound, the “Diarrhea Score, mean” value worked out at 0.0 in data set [1] (Day 6, group mean); 0.0 in data set [1] (Day 7, group mean); 0.25 in data set [1] (Day 8, group mean); 0.429 in data set [1] (Day 9, group mean); 1.6 in data set [1] (Day 10, group mean); 2.3 in data set [1] (Day 11, group mean). The “Diarrhea Score, mean” value in data set [1] (Day 12, group mean) is given as 2.1. Further, the “Diarrhea Score” value in data set [1] (setting [6]) is 0; in data set [1] (setting [7]), 0; in data set [1] (setting [8]), 0 and 2; in data set [1] (setting [9]) it was 0 and D and 3; in data set [1] (setting [10]), 0 and D and 3 and 2; in data set [1] (setting [11]), 1 and D and 3 and 2. Besides, the “Diarrhea Score” value in data set [1] (setting [12]) was 3 and 0 and D. For the same compound, the “Mean ± SEM of Diarrhea score” value in data set [1] (day 9, Welch's unpaired t-test table) is 0.0 ± 0.0 N=7; in data set [1] (day 10, Welch's unpaired t-test table), 0.0 ± 0.0 N=7; in data set [1] (day 11, Welch's unpaired t-test table), 0.2857 ± 0.1844 N=7; in data set [1] (day 12, Welch's unpaired t-test table), 0.3333 ± 0.2108 N=6. Besides, the “patients at high risk of death owing to neutropenia” value in data set [2] is reported as ~ 3.5%. Further, the patients becoming dehydrated in data set [2] is on record as ~ 10%. Further, the “patients suffering from severe delayed diarrhea” value in data set [2] is 87%.
Take `CCCCCC[C@@H]1NC[C@@H](O)[C@H](O)[C@H]1C(=O)O` [Inhibior 3]: the “Diarrhea Score, mean” value in data set [1] (Day 6, group mean) amounted to 0.0; in data set [1] (Day 7, group mean) it was 0.0; in data set [1] (Day 8, group mean), 0.0; in data set [1] (Day 9, group mean), 0.0; in data set [1] (Day 10, group mean), 0.0; in data set [1] (Day 11, group mean), 0.0. Besides, in data set [1] (Day 12, group mean), the “Diarrhea Score, mean” value was found to be 0.0. Besides, the “Diarrhea Score” value in data set [1] (setting [6]), in data set [1] (setting [7]), in data set [1] (setting [8]), in data set [1] (setting [9]), in data set [1] (setting [10]) and in data set [1] (setting [11]) was 0 each time. The “Diarrhea Score” value in data set [1] (setting [12]) is 0.
As to `CCCCCC[C@@H]1NC[C@@H](O)[C@H](O)[C@H]1CO` [Compound 12], the inhibition (usually the change of the read-out against control, counted positive when it falls) at 1000 µM in data set [3] was determined as 0.6%. For the same compound, 24.9 µM corresponded to half-maximal inhibition in data set [4] (IC50).
For `CCOc1ccc(NC(=S)N(CCO)Cc2cc3cc(C)cc(C)c3[nH]c2=O)cc1` [ASN03273363, reference compound], the “health of the epithelial layer and intestinal glandular structure (hematoxylin and eosin staining)” value in data set [5] was “neither compound affected the health of the epithelial layer or the intestinal glandular structure”.
Turning to `CCC[C@@H]1NC[C@@H](O)[C@H](O)[C@H]1CO` [Compound 11], the inhibition at 1000 µM in data set [3] stood at 4.5%. Further, the IC50 (commonly the concentration that inhibits the measured activity by half) in data set [4] came to 272 µM.
On the same counts, the results for `CCCCCCCCC[C@@H]1NC[C@@H](O)[C@H](O)[C@H]1CO` [Compound 13] are -0.5% and 3.6 µM.
